For series [1], the system named is DM2. To be noted: oral metformin.
The test system of series [2] is Type 2 diabetes. The following applies: human, in vivo.
Description: They had recently stopped all diabetic medications due to side effects. They wished to stay off insulin due to the risk of gaining weight.
Labs: Hgb A1C 11.2%, Total Cholesterol: 159, Triglycerides: 284, HDL: 32, LDL: 70
The patient was not on any diabetic medications due to intolerable gastrointestinal side effects. […] It was decided that an alternative drug delivery mechanism would be appropriate. […] The patient was educated on the usage of the gel, how to apply the gel and potential side effects. The patient was to contact the physician if any adverse effects occurred. […] The patient was to follow-up in one month.
The patient stated that there had been no lifestyle changes.
Lipids were collected with results of total cholesterol: 119, triglycerides: 209, HDL: 29, LDL: 48.
They were interested in trying a medication that will cover their through the evening to get their BS to 200 mg/dL in the morning. They were concerned with anything that will cause them to gain weight.
The conditions of series [3]: cited from earlier work.
The conditions of series [4]: oral; cited from earlier work.

Structures are written as SMILES.

For the compound `CN(C)C(=N)N=C(N)N` [metformin], the BS readings result in series [1] (before it was stopped) was “improved”. In series [1] (stopped 3 months prior to visit), the “side effects leading to stopping” value is on record as “severe gastrointestinal side effects”. In addition, the “tolerability of previously tried diabetic medications” value (from here on “tolerability”) in series [2] was “unable to tolerate”. For the same compound, in series [3] (oral metformin, anorexia, nausea, vomiting, abdominal discomfort, diarrhea), the “patients experiencing a gastrointestinal side effect” value is “Up to 20%”. The “patients discontinuing therapy due to side effects” value in series [3] (oral metformin) is recorded as “up to 5%”. Besides, the “patients developing vitamin B12 deficiency” value in series [3] (patients taking metformin) was 77%. The absorption time in series [4] was 6 h.

For the compound `CCc1ccc(CCOc2ccc(CC3SC(=O)NC3=O)cc2)nc1` (stereo not drawn) [pioglitazone], the “tolerability” value in series [2] is “unable to tolerate”.

`N[C@@H](CC(=O)N1CCn2c(nnc2C(F)(F)F)C1)Cc1cc(F)c(F)cc1F` [sitagliptin]: the “tolerability” value in series [2] is “unable to tolerate”.

The values above are taken from patent publication US20120283332A1 (OHIO UNIVERSITY, priority 2009, published 2012).
